Measured values from US20070208039A1, “Fungicidal Mixtures for Controlling Rice Pathogens” (priority 2004, published 2007).

System: Cochliobolus miyabeanus
Test: activity against brown spot of rice caused by Cochliobolus miyabeanus, protective treatment
Type: in vivo
Settings: individual active compound, rice leaves, 6 days after inoculation
Method: The active compounds, separately or jointly, were prepared as a stock solution comprising 0.25% by weight of active compound in acetone or DMSO. 1% by weight of the emulsifier Uniperol® EL (wetting agent having emulsifying and dispersing action based on ethoxylated alkylphenols) was added to this solution, and the mixture was appropriately diluted with water to the desired concentration.
Use example—activity against brown spot of rice caused by Cochliobolus miyabeanus, protective treatment Leaves of potted rice seedlings of the cultivar “Tai-Nong 67” were sprayed to runoff point with an aqueous suspension having the concentration of active compound stated below. The next day, the plants were inoculated with an aqueous spore suspension of Cochliobolus miyabeanus. The test plants were then placed in climatized chambers at 22-24° C. and 95-99% relative atmospheric humidity for six days. The extent of the development of the infection on the leaves was then determined visually.
Evaluation is carried out by determining the percentage of infected leaf areas. These percentages were converted into efficacies.
The efficacy (E) is calculated as follows using Abbot's formula: E=(1−α/β)·100 α corresponds to the fungicidal infection of the treated plants in % and β corresponds to the fungicidal infection of the untreated (control) plants in % An efficacy of 0 means that the infection level of the treated plants corresponds to that of the untreated control plants; an efficacy of 100 means that the treated plants are not infected.
The expected efficacies of mixtures of active compounds are determined using Colby's formula (Colby, R. S., Weeds, 15, 20-22, 1967) and compared with the observed efficacies.
Colby's formula: E=x+y−x·y/100 • E expected efficacy, expressed in % of the untreated control, when using the mixture of the active compounds A and B at the concentrations a and b • x efficacy, expressed in % of the untreated control, when using the active compound A at the concentration a • y efficacy, expressed in % of the untreated control, when using the active compound B at the concentration b

Structure (SMILES)	Efficacy in % of the untreated control (6.25 ppm in the spray liquor) [%]	Efficacy in % of the untreated control (25 ppm in the spray liquor) [%]
CC1CCN(c2c(-c3c(F)cccc3Cl)c(Cl)nc3ncnn23)CC1 [A]	33	
C[C@H](Nc1c(-c2c(F)cc(F)cc2F)c(Cl)nc2ncnn12)C(F)(F)F [B]	56	
CC1CCN(c2c(-c3c(F)cc(F)cc3F)c(Cl)nc3ncnn23)CC1 [I, 5-chloro-7-(4-methylpiperidin-1-yl)-6-(2,4,6-trifluorophenyl)-[1,2,4]tri-azolo[1,5-a]pyrimidine]	56	
CC(=O)O.CCCCCCCCCCCCNC(=N)N [II (dodine), 1-dodecylguanidinium acetate]	0	0
